{"source": "patent US5885968A", "about": "“Triantennary cluster glycosides, their preparation and use” (Rijksuniversiteit te Leiden, priority 1992, dated 1999)", "key": {"[1]": {"system": "rats", "experiment": "Serum cholesterol lowering after intravenous injection in rats", "format": "in vivo, rat", "description": "This was verified as follows. Male rats (250-300 g) were anesthetized by means of ether, whereafter 500 gl PBS, having dissolved therein 0.56 mg, 0.18 mg, 0.056 mg or 0 mg TG(20 Å)-chol (formula 20) or 0.56 mg tris-glu-chol (formula 21): [drawing 19] was injected into the vena penis. At the times indicated in FIG. 3, blood samples of 300 μl were taken by means of orbital puncture. The blood samples were centrifuged (5 min; 1500 g) and the serum was used for a cholesterol assay by means of the CHOD-PAP kit of Boehringer Mannheim. 24 Hours after injection the rat was bled. The blood was centrifuged whereafter the serum was pipeted. Then the serum was subjected to gradient density ultracentrifugation and the various lipoprotein fractions were isolated: HDL (1.21<d<1.05), LDL (1.050<d<1.019), IDL (1.019<d<1.006) and VLDL (d<1.006). Finally, the total cholesterol concentrations of these lipoprotein fractions were assayed by means of the CHOD-PAP kit."}, "[2]": {"system": "rats", "experiment": "In vivo fate of lipoprotein (a) charged with glycolipid in rats", "set-up": "species or system rat", "description": "The so prepared TG(20 Å)-chol (formula 20): [drawing 24] can also be used to direct apo(a) to the hepatic parenchymal cell. High levels of lp(a) are correlated with the occurence of coronary and vascular diseases. To date, an adequate clinical therapy to alleviate the pathogenesis is not available. To investigate whether TG(20 Å)C can be used to stimulate the hepatic uptake and processing of lp(a) this, isolated lp(a) was charged with TG(20 Å)-chol according to a procedure that is known per se and the in vivo behaviour of the particle was studied. Lp(a) (50 μg) in PBS was incubated at 20° C. for 30 min with 0, 5, 15 and 50 μg TG(20 Å) (-chol). This charge led to a changed behaviour of the apo(a) after intravenous injection into rats. This is illustrated in FIG. 8. […] On account of the high […] of TG(20 Å)-chol, very rapidly an exchange of this compound occurs between lp(a) and other lipoproteins and lipid compartments. This then leads to a stabilization of the lp(a) level in the bloodstream after a few minutes.\n^125 I-Lp(a) (50 μg) was mixed with 50 μg of TG(20 Å)C or TG(4 Å)C in 500 μl PBS. After 30 min at room temperature, the mixtures were injected into rats at a dose of 50 μg of apolipoprotein/kg body weight. Ten minutes after injection, parenchymal, endothelial and Kupffer cells were isolated from the liver and counted for radioactivity. Values are expressed as 10-3.% of the injected dose per mg of cellular protein and are means of 3 experiments ± s.e.m."}, "[3]": {"system": "rats", "experiment": "In vivo behaviour of LDL charged with glycolipid after intravenous injection into rats", "set-up": "species or system rat", "description": "The so prepared compound TG(20 Å)-chol (formula 20): [drawing 22] can also be used to direct LDL to the hepatic parenchymal cell. To investigate this, isolated low-density lipoprotein was charged with TG(20 Å)-chol according to a procedure that is known per se and the in vivo behaviour of the particle was studied. […] This then leads to a stabilization of the LDL level in the bloodstream after a few minutes. Accumulation of TG(20 Å)-chol in LDL, then, changes the physiological rate of LDL. The complex is taken up by the liver via a galactose-specific route. […] Now it can be verified whether the complex is taken up by the parenchymal or by the Kupffer cell on the liver. […] This is an indication that charging with this compound leads to liver uptake via the asialoglycoprotein receptor in the parenchymal cell."}, "[4]": {"system": "rats", "experiment": "Biliary secretion in catheterized rats after intravenous injection", "format": "in vivo, rat", "details": "0.56 mg i.v., FIG. 5", "description": "Intravenous injection of TG(20 Å)C (0.56 mg, dissolved in phosphate buffered saline) in rats, provided with catheters in duodenum, bile-duct and heart vene, also enhances the biliary secretion of bile acids from the liver leaving the biliary flow and the biliary secretion of cholesterol unaltered. Apparently, the TG(20 Å)C-induced increase in the uptake of lipoprotein-derived cholesterol is efficiently coupled to bile-acid secretion in rats. This might have important implications for potential application of TG(20 Å)C as a hypocholesterolemic therapeutic. (See FIG. 5.)"}, "[5]": {"details": "125I-Lp(a) 50 μg + 50 μg glycolipid, rats, 10 min after injection, mean ± s.e.m., 3 experiments"}}}
{"smiles": "CC(C)CCC[C@@H](C)[C@H]1CC[C@H]2[C@@H]3CC=C4C[C@@H](OC(=O)CNC(=O)CCCCC(=O)NCC(=O)NC(COCOCCOCCOCCOCCO[C@@H]5O[C@H](CO)[C@H](O)[C@H](O)[C@H]5O)(COCOCCOCCOCCOCCO[C@@H]5O[C@H](CO)[C@H](O)[C@H](O)[C@H]5O)COCOCCOCCOCCOCCO[C@@H]5O[C@H](CO)[C@H](O)[C@H](O)[C@H]5O)CC[C@]4(C)[C@H]3CC[C@]12C", "note": "[TG(20 Å)-chol, N,N-[tris-O-(3,6,9-trioxaundecanyl-β-D-galactopyranosyl)methoxymethyl]methyl-N^α -(1-(6-(5-cholesten-3β-yloxy)glycyl)adipyl)glycinamide]", "values": [{"measurement": "Cholesterol level 24 hours after single administration", "setting": "[1]; 0.56 mg, 24 hours", "result": "has not returned to the control value"}, {"measurement": "LDL level", "setting": "[1]; 24 h after injection", "result": "likewise lowered"}, {"measurement": "Concentrations of the other lipoproteins", "setting": "[1]; 24 h after injection (IDL, VLDL)", "result": "not significantly affected"}, {"measurement": "Serum HDL level", "setting": "[1]; 24 h after injection, FIG. 4", "result": "decreases dose-dependently and significantly"}, {"measurement": "Total serum cholesterol level", "setting": "[1]; injection into vena penis, 0.056-0.56 mg, FIG. 3", "result": "decreases"}, {"measurement": "Increase in potency compared with tris-gal-chol", "setting": "[1]; serum cholesterol lowering, comparison with ref 15", "result": "≥ 25", "unit": "factor"}, {"measurement": "Effect of N-acetyl-galactosamine preinjection on induced hepatic uptake of 125I-lp(a)", "setting": "[2]; 150 mg N-acetyl-galactosamine, rat, data not shown", "result": "can be inhibited"}, {"measurement": "Contribution to hepatic uptake of Lp(a), EC (endothelial cells)", "setting": "[2]; [5]", "result": "8.3 ± 2", "unit": "%"}, {"measurement": "Contribution to hepatic uptake of Lp(a), KC (Kupffer cells)", "setting": "[2]; [5]", "result": "37.3 ± 9", "unit": "%"}, {"measurement": "Clearance from bloodstream and liver uptake of charged apo(a)/lp(a) particles", "setting": "[2]; Lp(a) 50 μg charged with 5, 15, 50 μg, i.v. rats, FIG. 8", "result": "cleared and incorporated into the liver much faster"}, {"measurement": "Effect of asialofetuin preinjection on uptake of charged LDL", "setting": "[3]; 50 mg/kg asialofetuin 1 min before injection", "result": "significant inhibition of the uptake by the liver parenchymal cell"}, {"measurement": "Clearance from bloodstream and liver uptake of charged 125I-LDL", "setting": "[3]; LDL 50 μg charged with 5, 15, 50 μg, i.v. rats, FIG. 6", "result": "cleared and incorporated into the liver much faster"}, {"measurement": "Liver cell type location of charged LDL taken up", "setting": "[3]; rats, FIG. 7", "result": "largely located in the parenchymal cell"}, {"measurement": "Biliary flow", "setting": "[4]", "result": "unaltered"}, {"measurement": "Biliary secretion of bile acids", "setting": "[4]", "result": "enhances"}, {"measurement": "Biliary secretion of cholesterol", "setting": "[4]", "result": "unaltered"}]}
